According to patent US20080318947A1, “Inhibitors of Akt Activity” (priority 2005, published 2008):

How the values were obtained:
Test in all cases: AKT enzyme assay (substrate phosphorylation, SPA)
Format in all cases: biochemical
AKT2 = molecular target: T1, AKT2 (Homo sapiens, UniProt P31751); details: 10 nM activated AKT enzyme, 4 uM ATP, 8 uM peptide, 40 minutes at room temperature; read-out: IC50 value against AKT2
T1 construct: His-tagged AKT2 (aa 138-481) and His-tagged AKT3 (aa 135-479) are isolated; His; made in house; host or cells: insect cells (by 'similar fashion' to AKT1)
Procedure: (§1) Compounds of the present invention are tested for AKT 1, 2, and 3 protein serine kinase inhibitory activity in substrate phosphorylation assays. This assay examines the ability of small molecule organic compounds to inhibit the serine phosphorylation of a peptide substrate. The substrate phosphorylation assays use the catalytic domains of AKT 1, 2, or 3. AKT 1, 2 and 3 are also commercially available from Upstate USA, Inc. The method measures the ability of the isolated enzyme to catalyze the transfer of the gamma-phosphate from ATP onto the serine residue of a biotinylated synthetic peptide SEQ. ID NO: 5 (Biotin-ahx-[…]-amide). Substrate phosphorylation is detected by the following procedure:
(§2) Assays are performed in 384 well U-bottom white plates. […] ATP/well, 1 mM CHAPS, 2 mM DTT, and 1 ul of test compound in 100% DMSO. The reaction is stopped by the addition of 50 ul SPA bead mix (Dulbecco's PBS without Mg^2+ and Ca^2+, 0.1% Triton X-100, 5 mM EDTA, 50 uM ATP, 2.5 mg/ml Streptavidin-coated SPA beads.) The plate is sealed, the beads are allowed to settle overnight, and then the plate is counted in a Packard Topcount Microplate Scintillation Counter (Packard Instrument Co., Meriden, Conn.).
(§3) The data for dose responses are plotted as % Control calculated with the data reduction formula 100*(U1−C2)/(C1−C2) versus concentration of compound where U is the unknown value, C1 is the average control value obtained for DMSO, and C2 is the average control value obtained for 0.1M EDTA. Data are fitted to the curve described by: y=((Vmax*x)/(K+x)) where Vmax is the upper asymptote and K is the IC50.

AKT3 = molecular target: T2, AKT3 (Homo sapiens, UniProt Q9Y243); details: 10 nM activated AKT enzyme, 4 uM ATP, 8 uM peptide, 40 minutes at room temperature; read-out: IC50 value against AKT3
T2 construct: His-tagged AKT3 (aa 135-479) are isolated and purified in a similar fashion; His; made in house; host or cells: insect cells (by 'similar fashion' to AKT1)
Procedure: as §1, §2, §3

AKT1 = molecular target: T3, AKT1 (Homo sapiens, UniProt P31749); details: 10 nM activated AKT enzyme, 4 uM ATP, 8 uM peptide, 40 minutes at room temperature; read-out: IC50 value against AKT1
T3 construct: Insect cells expressing His-tagged AKT1 (aa 136-480) are lysed; His; made in house; host or cells: insect cells
Procedure: Cell debris are removed by centrifuging at 28,000×g for 30 minutes. The supernatant is filtered through a […] filter then loaded onto a nickel-chelating column pre-equilibrated with lysis buffer. The column is washed with 5 column volumes (CV) of lysis buffer then with 5 CV of 20% buffer B, where buffer B is 25 mM HEPES, 100 mM NaCl, 300 mM imidazole; pH 7.5. […] The sample is then chromatographed over a Q-Sepharose HP column pre-equilibrated with buffer C. The column is washed with 5 CV of buffer C then step eluted with 5 CV 10% D, 5 CV 20% D, 5 CV 30% D, 5 CV 50% D and 5 CV of 100% D; where buffer D is 25 mM HEPES, 1000 mM NaCl; pH 7.5. […] The protein is pooled, concentrated and frozen at −80 C.
as §1, §2, §3

T1 sequence (P31751 138-481): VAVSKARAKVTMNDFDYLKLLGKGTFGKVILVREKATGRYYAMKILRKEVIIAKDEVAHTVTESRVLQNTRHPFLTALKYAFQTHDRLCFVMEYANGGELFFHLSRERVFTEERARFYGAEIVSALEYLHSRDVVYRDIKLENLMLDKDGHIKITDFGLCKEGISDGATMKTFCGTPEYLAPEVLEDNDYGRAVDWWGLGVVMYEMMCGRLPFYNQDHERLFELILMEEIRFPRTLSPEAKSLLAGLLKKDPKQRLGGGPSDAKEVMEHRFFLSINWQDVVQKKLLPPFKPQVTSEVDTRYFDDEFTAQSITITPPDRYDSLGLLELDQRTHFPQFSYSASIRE
T2 sequence (Q9Y243 135-479): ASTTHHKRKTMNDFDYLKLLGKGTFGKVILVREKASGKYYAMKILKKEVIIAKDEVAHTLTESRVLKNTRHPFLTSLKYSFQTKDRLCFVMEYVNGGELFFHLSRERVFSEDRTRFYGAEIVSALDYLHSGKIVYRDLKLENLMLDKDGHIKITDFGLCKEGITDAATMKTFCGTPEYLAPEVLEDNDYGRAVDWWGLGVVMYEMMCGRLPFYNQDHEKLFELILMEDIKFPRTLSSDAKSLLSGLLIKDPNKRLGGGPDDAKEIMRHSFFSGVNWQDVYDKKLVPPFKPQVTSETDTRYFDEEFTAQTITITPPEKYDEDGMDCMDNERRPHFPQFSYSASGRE
T3 sequence (P31749 136-480): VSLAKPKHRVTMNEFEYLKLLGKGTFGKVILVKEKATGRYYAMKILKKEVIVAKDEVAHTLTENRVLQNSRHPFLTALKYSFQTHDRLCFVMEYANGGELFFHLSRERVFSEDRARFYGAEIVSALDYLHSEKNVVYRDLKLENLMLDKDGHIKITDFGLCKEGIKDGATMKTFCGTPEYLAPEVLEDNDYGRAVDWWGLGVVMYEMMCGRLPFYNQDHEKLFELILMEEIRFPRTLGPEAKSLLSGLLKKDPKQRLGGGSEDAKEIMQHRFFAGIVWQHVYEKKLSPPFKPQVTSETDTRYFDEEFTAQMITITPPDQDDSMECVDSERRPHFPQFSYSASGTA

Structure (SMILES)	IC50 (AKT2) [nM]	IC50 (AKT3) [nM]	IC50 (AKT1) [nM]
CCn1c(-c2nonc2N)nc2c(C#CC(C)(C)O)nc(OC(CN)c3cccc4c3OCO4)cc21 (single isomer, unassigned) [Example 93, 4-[6-{[2-amino-1-(1,3-benzodioxol-4-yl)ethyl]oxy}-2-(4-amino-1,2,5-oxadiazol-3-yl)-1-ethyl-1H-imidazo[4,5-c]pyridin-4-yl]-2-methyl-3-butyn-2-ol]	≤ 500	≤ 500	≤ 500
CCn1c(-c2nonc2N)nc2c(C#CC(C)(C)O)nc(OC[C@H](N)Cc3ccccc3)cc21 [Example 43, 4-(2-(4-amino-1,2,5-oxadiazol-3-yl)-6-{[(2R)-2-amino-3-phenylpropyl]oxy}-1-ethyl-1H-imidazo[4,5-c]pyridin-4-yl)-2-methyl-3-butyn-2-ol]	–	≤ 500	≤ 500
CCn1c(-c2nonc2N)nc2c(C#CC(C)(C)O)nc(O[C@@H](CN)c3ccccc3)cc21 [Example 86, 4-(2-(4-amino-1,2,5-oxadiazol-3-yl)-6-{[(1R)-2-amino-1-phenylethyl]oxy}-1-ethyl-1H-imidazo[4,5-c]pyridin-4-yl)-2-methyl-3-butyn-2-ol]	–	≤ 500	–
CCn1c(-c2nonc2N)nc2c(C#CC(C)(C)O)nc(O[C@@H](CCN)c3ccccc3)cc21 [Example 108, 4-(2-(4-amino-1,2,5-oxadiazol-3-yl)-6-{[(1S)-3-amino-1-phenylpropyl]oxy}-1-ethyl-1H-imidazo[4,5-c]pyridin-4-yl)-2-methyl-3-butyn-2-ol]	–	≤ 500	–
CCn1c(-c2nonc2N)nc2c(C#CC(C)(C)O)nc(O[C@@H](c3ccccc3)[C@H]3CCCN3)cc21 [Example 117, 4-[2-(4-amino-1,2,5-oxadiazol-3-yl)-1-ethyl-6-([(S)-phenyl[(2R)-2-pyrrolidinyl]methyl]oxy)-1H-imidazo[4,5-c]pyridin-4-yl]-2-methyl-3-butyn-2-ol]	≤ 500	≤ 500	≤ 500
CCn1c(-c2nonc2N)nc2c(C#CC(C)(C)O)nc(OC[C@H](N)Cc3ccccc3Cl)cc21 [Example 143, 4-[6-{[(2R)-2-amino-3-(2-chlorophenyl)propyl]oxy}-2-(4-amino-1,2,5-oxadiazol-3-yl)-1-ethyl-1H-imidazo[4,5-c]pyridin-4-yl]-2-methyl-3-butyn-2-ol]	≤ 500	≤ 500	≤ 500
CCn1c(-c2nonc2N)nc2c(C#CC(C)(C)O)nc(OC(CN)c3cccc(Cl)c3)cc21 (centres unmarked) [Example 151, 4-[6-{[2-amino-1-(3-chlorophenyl)ethyl]oxy}-2-(4-amino-1,2,5-oxadiazol-3-yl)-1-ethyl-1H-imidazo[4,5-c]pyridin-4-yl]-2-methyl-3-butyn-2-ol]	≤ 500	≤ 500	≤ 500

Next, values leading:

IC50 (AKT2) [nM]	IC50 (AKT3) [nM]	IC50 (AKT1) [nM]	Structure (SMILES)
≤ 500	≤ 500	≤ 500	CCn1c(-c2nonc2N)nc2c(C#CC(C)(C)O)nc(OC(CN)c3cccc4c3OCO4)cc21 (racemic) [Example 92, 4-[6-{[2-amino-1-(1,3-benzodioxol-4-yl)ethyl]oxy}-2-(4-amino-1,2,5-oxadiazol-3-yl)-1-ethyl-1H-imidazo[4,5-c]pyridin-4-yl]-2-methyl-3-butyn-2-ol]
≤ 500	≤ 500	≤ 500	CCn1c(-c2nonc2N)nc2c(C#CC(C)(C)O)nc(OC(CN)C3CCCCC3)cc21 (single isomer, unassigned) [Example 123, 4-[6-[(2-amino-1-cyclohexylethyl)oxy]-2-(4-amino-1,2,5-oxadiazol-3-yl)-1-ethyl-1H-imidazo[4,5-c]pyridin-4-yl]-2-methyl-3-butyn-2-ol]
–	≤ 500	–	CCn1c(-c2nonc2N)nc2c(C#CC(C)(C)O)nc(OC(CN)c3ccccc3)cc21 (centres unmarked) [Example 77, 4-{2-(4-amino-1,2,5-oxadiazol-3-yl)-6-[(2-amino-1-phenylethyl)oxy]-1-ethyl-1H-imidazo[4,5-c]pyridin-4-yl}-2-methyl-3-butyn-2-ol]
≤ 500	≤ 500	≤ 500	CCn1c(-c2nonc2N)nc2c(C#CC(C)(C)O)nc(OC(CN)Cc3ccccc3)cc21 (centres unmarked) [Example 106, 4-(2-(4-amino-1,2,5-oxadiazol-3-yl)-6-{[2-amino-1-(phenylmethyl)ethyl]oxy}-1-ethyl-1H-imidazo[4,5-c]pyridin-4-yl)-2-methyl-3-butyn-2-ol]
≤ 500	≤ 500	≤ 500	CCn1c(-c2nonc2N)nc2c(C#CC(C)(C)O)nc(OC(CN)c3cccc(OC)c3)cc21 (centres unmarked) [Example 132, 4-[6-({2-amino-1-[3-(methyloxy)phenyl]ethyl}oxy)-2-(4-amino-1,2,5-oxadiazol-3-yl)-1-ethyl-1H-imidazo[4,5-c]pyridin-4-yl]-2-methyl-3-butyn-2-ol]
≤ 500	≤ 500	≤ 500	CCn1c(-c2nonc2N)nc2c(C#CC(C)(C)O)nc(OC(CN)c3ccccc3Cl)cc21 (centres unmarked) [Example 152, 4-[6-{[2-amino-1-(2-chlorophenyl)ethyl]oxy}-2-(4-amino-1,2,5-oxadiazol-3-yl)-1-ethyl-1H-imidazo[4,5-c]pyridin-4-yl]-2-methyl-3-butyn-2-ol]
